From patent US9528090B2, “Differentiation of human embryonic stem cells” (Janssen Biotech, Inc., priority 2010, dated 2016)

Columns and labels:
[1] = system: human embryonic stem cells line H1; experiment: Definitive endoderm differentiation of H1 cells, cluster seeding (activin A/WNT-3a, RPMI): FACS for CXCR4 and CD9; assay type: cell-based; conditions: for % CXCR4 + CD9− / % CXCR4 − CD9+ / % CXCR4 − CD9−: cluster seeding, day 4
Description: Cells of the human embryonic stem cells line H1 (p40-p52) were cultured on […]® (1:30 dilution) (BD Biosciences; Cat #356231)-coated dishes in MEF-CM (mouse embryonic fibroblast conditioned media) supplemented with 16 ng/ml of FGF2 (Catalog#100-18B, PeproTech, NJ), and differentiated into cells expressing markers characteristic of the definitive endoderm lineage as follows: • a. RPMI medium supplemented with 2% fatty acid-free BSA (Catalog#68700, Proliant, IA), and 100 ng/ml activin A (R&D Systems, MN) plus 20 ng/ml WNT-3a (Catalog#1324-WN-002, R&D Systems, MN) for one day, then • b. RPMI medium supplemented with 2% BSA and 100 ng/ml activin A for an additional three days.
[…] ITS-X is a serum replacement supplemented comprised of 1 mg/ml of Insulin, 0.55 mg/ml of Transferrin, 0.00067 mg/ml of Sodium Selenite, […] As a control, 0.2% FBS (Catalogue#SH30070.03, Hyclone, UT) was used for day 1 of differentiation, 0.5% FBS at day 2 and 2% FBS was used for days 3-4. The FBS treated cultures were not supplemented with ITS-X.
At day 4, samples were collected for FACS and gene expression analysis using real-time PCR.
The cell surface receptor CXCR4 has been previously shown to be a marker of definitive endoderm. CD9 is a marker for undifferentiated ES cells. Consequently, an increase in the expression of CXCR4, and a decrease in the expression of CD9 in a population of cells is indicative for the formation of definitive endoderm.

[2] = system: human embryonic stem cells line H1; experiment: Definitive endoderm differentiation of H1 cells, single cell seeding (activin A/WNT-3a, MCDB-131): FACS for CXCR4 and CD9; assay type: cell-based; conditions: for % CXCR4 + CD9− / % CXCR4 − CD9+ / % CXCR4 − CD9−: single cell seeding, day 4
Description: (§1) Cells of the human embryonic stem cells line H1 (p40-p52) were seeded as single cells at a density of 100000 cells/cm^2 on MATRIGEL® (1:30 dilution) (BD Biosciences; Cat #356231)-coated dishes in MEF-CM (mouse embryonic fibroblast conditioned media) supplemented with 16 ng/ml of FGF2 (Catalog#100-18B, PeproTech, NJ) and 10 μM of Y27632 (Rock inhibitor, Catalogue#Y0503, Sigma, Mo.). 72 hrs post seeding, cultures were differentiated into definitive endoderm (DE) as follows: • a. MCDB-131 (Catalogue#10372-019, Invitrogen, CA) medium supplemented with 2% fatty acid-free BSA (Catalog#68700, Proliant, IA), 0.0025 g/ml sodium bicarbonate (Catalogue #S3187, Sigma, Mo.), 1× GlutaMax™ (Catalogue #35050-079, Invitrogen, Ca) and 100 ng/ml activin A (R&D Systems, MN) plus 20 ng/ml WNT-3a (Catalog#1324-WN-002, R&D Systems, MN) for one day, then • b. MCDB-131 medium supplemented with 2% BSA, sodium bicarbonate, Glutamax, and 100 ng/ml activin A for an additional three days.
(§2) In some of the cultures, the cells were treated with the following concentrations of insulin (Catalogue#19278, Sigma, Mo.): 0, 1, 10, 100, 1000, or 10000 ng/ml. At day 4, samples were collected for FACS and gene expression analysis using real-time PCR.
FIG. 5 depicts the CXCR4 and CD9 expression profile of the various treatments as measured by FACS analysis.

[3] = system: human embryonic stem cells line H1; experiment: Definitive endoderm differentiation of H1 cells, single cell seeding (activin A/WNT-3a): real-time PCR gene expression; assay type: cell-based; conditions: BSA medium
Description: as §1, §2

[4] = system: human embryonic stem cells line H1; experiment: Definitive endoderm differentiation of H1 cells in FBS medium (GDF8/GSK3B inhibitor) with IGF or insulin: FACS and real-time PCR; assay type: cell-based; conditions: in the presence of FBS, 10-100 ng/ml, day 4
Description: as §1, with “a. with” for “a.”, “0.2% FBS (Catalogue#SH30070.03, Hyclone, UT),” for “2% fatty acid-free BSA (Catalog#68700, Proliant, IA),”, “GDF8 (Catalogue#120-00, PeproTech, NJ)” for “activin A (R&D Systems, MN)”, “2.5 μM of the GSK3B inhibitor 14-Prop-2-en-1-yl-3,5,7,14,17,23,27-heptaazatetracyclo[19.3.1.1˜2,6˜0.1˜8,12˜]heptacosa-1(25),2(27),3,5,8(26),9,11,21,23-nonaen-16-one” for “20 ng/ml WNT-3a (Catalog#1324-WN-002, R&D Systems, MN)”, “FBS,” for “2% BSA,”, “GDF8” for “activin A”
0.5% FBS was used for day 2 and 2% FBS was used for days 3-4. Besides regular FBS, heat treated FBS (Catalogue#F4135, Sigma, Mo.) and charcoal stripped treated FBS (Catalogue#F6765, Sigma, Mo.) were also tested. Some of the FBS treated cultures were also treated with various concentrations of IGF (10-100 ng/ml) or insulin (10-100 ng/ml).
At day 4, samples were collected for analysis by FACS and real-time PCR.

ES cells = conditions: 200 ng/ml of insulin added to 2% FBS, MEF-CM, activin A; cited from earlier work
[5] = BSA + 100 ng/ml insulin (ITS-X)
[6] = super physiological insulin (1-10 μg/ml), BSA medium

Substance: insulin
- % CXCR4 + CD9− ([1]; BSA + 1 ng/ml insulin (ITS-X)): 70%
- % CXCR4 − CD9+ ([1]; BSA + 1 ng/ml insulin (ITS-X)): 13%
- % CXCR4 − CD9− ([1]; BSA + 1 ng/ml insulin (ITS-X)): 10%
- % CXCR4 + CD9− ([1]; BSA + 5 ng/ml insulin (ITS-X)): 67%
- % CXCR4 − CD9+ ([1]; BSA + 5 ng/ml insulin (ITS-X)): 15%
- % CXCR4 − CD9− ([1]; BSA + 5 ng/ml insulin (ITS-X)): 12%
- % CXCR4 + CD9− ([1]; BSA + 10 ng/ml insulin (ITS-X)): 69%
- % CXCR4 − CD9+ ([1]; BSA + 10 ng/ml insulin (ITS-X)): 13%
- % CXCR4 − CD9− ([1]; BSA + 10 ng/ml insulin (ITS-X)): 13%
- % CXCR4 + CD9− [1, 5]: 73%
- % CXCR4 − CD9+ [1, 5]: 12%
- % CXCR4 − CD9− [1, 5]: 9%
- expression of CXCR4, or CD9 ([1]; BSA medium, any concentration of insulin tested, FACS): no significant change
- % CXCR4 + CD9− ([2]; BSA + 1 ng/ml insulin): 96%
- % CXCR4 − CD9+ ([2]; BSA + 1 ng/ml insulin): 1.5%
- % CXCR4 − CD9− ([2]; BSA + 1 ng/ml insulin): 0.7%
- % CXCR4 + CD9− ([2]; BSA + 10 ng/ml insulin): 95%
- % CXCR4 − CD9+ ([2]; BSA + 10 ng/ml insulin): 1.4%
- % CXCR4 − CD9− ([2]; BSA + 10 ng/ml insulin): 0.7%
- % CXCR4 + CD9− ([2]; BSA + 100 ng/ml insulin): 90%
- % CXCR4 − CD9+ ([2]; BSA + 100 ng/ml insulin): 4.1%
- % CXCR4 − CD9− ([2]; BSA + 100 ng/ml insulin): 2%
- % CXCR4 + CD9− ([2]; BSA + 1 μg/ml insulin): 90%
- % CXCR4 − CD9+ ([2]; BSA + 1 μg/ml insulin): 3.6%
- % CXCR4 − CD9− ([2]; BSA + 1 μg/ml insulin): 2.2%
- % CXCR4 + CD9− ([2]; BSA + 10 μg/ml insulin): 84%
- % CXCR4 − CD9+ ([2]; BSA + 10 μg/ml insulin): 6.6%
- % CXCR4 − CD9− ([2]; BSA + 10 μg/ml insulin): 4.7%
- CXCR4−CD9+ fraction [2, 6]: increase in expression
- percentage of CXCR4+CD9− cells [2, 6]: decrease in the percentage
- expression of markers associated with definitive endoderm (FOXA2, SOX17, CER1, CXCR4) ([3]; 1-100 ng/ml insulin, day 4): did not significantly affect
- expression of NANOG ([3]; 1-10 μg/ml of insulin): did increase expression
- expression of the pluripotency marker NANOG [4]: upregulated
- markers associated with definitive endoderm such as SOX17 and CCXR4 [4]: dose dependently down regulated
- decrease of the expression of SOX17 (ES cells): approximately 70%
